Measured values as given in patent US20210252104A1, “ANTIBACTERIAL PEPTIDE MONOMERS AND COMBINATIONS FOR CO-THERAPY” (ARREVUS, INC., priority 2018, published 2021).
In brackets after ≈: the same amount, converted by molar mass. Read-outs that look alike come from different tables or passages of the source. Non-standard residues stand in square brackets, D forms with d. Residues, ends and D or L forms follow the SMILES beside them. Ac6c = NC1(C(=O)O)CCCCC1

Columns and labels:
[1] = target: 70 kDa bacterial heat shock protein DnaK (Escherichia coli, UniProt P0A6Y8); assay: Binding to DnaK
Sequence of 70 kDa bacterial heat shock protein DnaK (P0A6Y8 whole entry, the tested form may be a part): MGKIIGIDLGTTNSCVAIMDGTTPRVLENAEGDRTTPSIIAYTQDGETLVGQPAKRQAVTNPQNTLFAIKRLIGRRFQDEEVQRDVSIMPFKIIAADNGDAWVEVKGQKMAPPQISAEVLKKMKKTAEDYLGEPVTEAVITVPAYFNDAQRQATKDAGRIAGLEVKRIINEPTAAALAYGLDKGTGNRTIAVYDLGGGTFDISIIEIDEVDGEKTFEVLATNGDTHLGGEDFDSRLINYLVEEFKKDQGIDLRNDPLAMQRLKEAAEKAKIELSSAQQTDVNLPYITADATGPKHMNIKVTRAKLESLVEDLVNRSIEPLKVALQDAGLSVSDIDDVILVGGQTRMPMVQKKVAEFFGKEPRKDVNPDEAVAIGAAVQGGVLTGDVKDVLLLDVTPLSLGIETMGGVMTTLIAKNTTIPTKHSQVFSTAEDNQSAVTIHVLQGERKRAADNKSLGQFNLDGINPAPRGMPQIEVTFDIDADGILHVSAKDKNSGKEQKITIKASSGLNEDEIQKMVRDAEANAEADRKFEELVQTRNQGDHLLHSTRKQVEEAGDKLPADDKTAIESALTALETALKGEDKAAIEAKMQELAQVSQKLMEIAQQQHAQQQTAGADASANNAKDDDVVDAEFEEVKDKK
Source text: The bacterial target of peptide monomers described herein, such as Chex1-Arg20, is believed to be the C-terminal D-E helix of the 70 kDa bacterial heat shock protein DnaK (Otvos et al., J. Med. Chem. 48:5349 (2005); Kragol et al., Biochemistry 40:3016 (2001); Bikker et al., Chem. Biol. Drug Des. 68:148 (2006)). DnaK is a 650-residue protein comprised of 3 distinct domains: (1) N-terminal nucleotide binding domain, (2) C-terminal substrate binding domain and (3) flexible linking domain. […] Peptide monomers described herein bind to DnaK from multiple bacterial species. The MPC of Chex1-Arg20 is reported to be >100 μM, supporting the conclusion that the antibacterial efficacy is […] non-membranolytic. Because DnaK is present in all bacteria, peptide monomers described herein are effective against a wide variety of bacteria and may be effective in combination with all classes of antibiotics.

A. baumannii HUMC1 = assay: Bacteremia synergy assay 3 (murine bacteremia model); format: in vivo
[2] = tested on: Burkholderia pseudomallei 1026b; format: in vivo
[3] = Post-antibiotic effect (PAE)
Source text: Post-antibiotic Effect (PAE).

[4] = Immunogenicity, antibody production by ELISA; format: in vivo; settings: mice; 5 mg/kg sc twice in a 3-wk interval; blood 4 weeks after second immunization
[5] = reported value; cited from earlier work
E. coli 5770 = assay: Mice challenged ip with E. coli 5770, blood bacterial counts
K. pneumoniae K97/09 [6] = assay: FIC checkerboard assay (combinations); format: cell-based; settings: K. pneumoniae K97/09
[7] = tested on: A. baumannii strain (BAA-1605); assay: microbe, parasite or virus in culture; format: cell-based; settings: Acinetobacter baumannii, BAA1605, read-out: MIC
K. pneumoniae K97/09 [8] = settings: K. pneumoniae K97/09; no unit in table (mg/L)
K. pneumoniae K97/09 [9] = assay: microbe, parasite or virus in culture; settings: Klebsiella pneumoniae
[10] = tested on: Acinetobacter baumannii BAA-1805 (MACI); assay: microbe, parasite or virus in culture; settings: BAA1805, read-out: MACI MIC (mg/L)

CC(C)C[C@H](NC(=O)[C@H](Cc1ccc(O)cc1)NC(=O)[C@@H]1CCCN1C(=O)[C@H](CCCNC(=N)N)NC(=O)[C@@H]1CCCN1C(=O)[C@H](CCCCN)NC(=O)[C@H](CC(=O)O)NC(=O)[C@@H]1CCCN1C(=O)[C@H](CCCNC(=N)N)NC(=O)C1(N)CCCCC1)C(=O)N1CCC[C@H]1C(=O)N[C@@H](CCCNC(=N)N)C(=O)N1CCC[C@H]1C(=O)N[C@@H](CCCNC(=N)N)C(=O)N1CCC[C@H]1C(=O)N1CCC[C@H]1C(=O)N[C@@H](CCCNC(=N)N)C(=O)N1CCC[C@H]1C(=O)N[C@H](C(=O)N[C@@H](CCCNC(=N)N)C(N)=O)C(C)C [Example 1, Chex-RPDKPRPYLPRPRPPRPVR-NH2] (H-[Ac6c]RPDKPRPYLPRPRPPRPVR-NH2)
Kd [1]: 0.41 µM
Complete response (negative blood culture), test animals (A. baumannii HUMC1; ARV-1502 5.0 mg/kg treatment group): 100%
Negative blood culture of A. baumannii (A. baumannii HUMC1; ARV-1502 1.25-5.0 mg/kg treatment groups): dose-dependent negative blood culture
Median survival (days post-challenge) ([2]; Chex1-Arg20 5 mg/kg im monotherapy): 4 days post-challenge
Rescue of mice ([2]; Chex1-Arg20 monotherapy): failed to rescue any mouse
B. pseudomallei load in survivals (CFU/spleen) ([2]; in vivo, 5 mg/kg): No survival
Number of deaths ([2]; in vivo, 5 mg/kg): 10
Post-antibiotic effect (PAE) [3]: 14 h
Antibody production by ELISA [4]: Neither IgG1, IgG2a, IgG3, IgM, nor IgE are observed
MIC (E. coli UNT167-1): 32 µg/mL (≈ 12.9 µM)
MPC [5]: > 100 µM
MIC (E. Coli ATCC 29222): 2.6 ± 0.7 µM (≈ 6.44 µg/mL)
MIC (K. Pneumoniae ATCC 13883): 0.8 ± 0.0 µM (≈ 1.98 µg/mL)
MIC (A. Baumannii ATCC 19606): >100 µM
MIC (P. aeruginosa ATCC 47085): 56.3 ± 4.5 µM (≈ 139 µg/mL)
Bacterial counts in blood (E. coli 5770; 2.5 mg/kg ip, 4 h after challenge (before first dose)): 3.68 × 10^7 CFU/mL
Bacterial counts in blood (E. coli 5770; 2.5 mg/kg ip, 8 h after challenge): 4.2 × 10^6 CFU/mL
Bacterial counts in blood (E. coli 5770; 2.5 mg/kg ip, 12 h after challenge): <1.7 × 10^6 CFU/mL
Bacterial counts in blood (E. coli 5770; 2.5 mg/kg ip, 16 h after challenge): <1 × 10^6 CFU/mL
Bacterial counts in blood (E. coli 5770; 2.5 mg/kg ip, 24 h after challenge): <4.8 × 10^5 CFU/mL
Improvement of blood bacterial load (E. coli 5770; 2.5 mg/kg ip, by 24 h): not statistically significant
Reduction of blood bacterial load (E. coli 5770; 2.5 mg/kg ip, during the 12-h treatment period): 1.5-2 log 10 units
Reduction of blood bacterial counts after inoculation (E. coli 5770; 5 mg/kg ip): > 2 log 10 CFU/mL
Bacterial counts in blood (E. coli 5770; 5 mg/kg ip, 4 h after challenge (before first dose)): 3.68 × 10^7 CFU/mL
Bacterial counts in blood (E. coli 5770; 5 mg/kg ip, 8 h after challenge): 4.3 × 10^5 CFU/mL
Bacterial counts in blood (E. coli 5770; 5 mg/kg ip, 12 h after challenge): 1.1 × 10^6 CFU/mL
Bacterial counts in blood (E. coli 5770; 5 mg/kg ip, 16 h after challenge): <1.1 × 10^5 CFU/mL
Bacterial counts in blood (E. coli 5770; 5 mg/kg ip, 24 h after challenge): <1 × 10^3 CFU/mL
Blood sterilization (E. coli 5770; 5 mg/kg ip, at 24 h): complete sterilization of the blood
Time after the last peptide treatment by which the blood was sterilized (E. coli 5770; 10 mg/kg ip): ≤ 4 h
Bacterial counts in blood (E. coli 5770; 10 mg/kg ip, 4 h after challenge (before first dose)): 3.68 × 10^7 CFU/mL
Bacterial counts in blood (E. coli 5770; 10 mg/kg ip, 8 h after challenge): 2.4 × 10^5 CFU/mL
Bacterial counts in blood (E. coli 5770; 10 mg/kg ip, 12 h after challenge): 2.9 × 10^5 CFU/mL
Bacterial counts in blood (E. coli 5770; 10 mg/kg ip, 16 h after challenge): <1 × 10^3 CFU/mL
Bacterial counts in blood (E. coli 5770; 10 mg/kg ip, 24 h after challenge): <1 × 10^3 CFU/mL

C[C@@H](O)[C@H]1C(=O)N2C(C(=O)O)=C(SCCN=CN)C[C@H]12 [imipenem]
ΣFIC (K. pneumoniae K97/09 [6]; antibiotic + ARV-1501): 0.5
MIC of antibiotic + ARV-1501 (K. pneumoniae K97/09 [6]; antibiotic in combination with ARV-1501, no unit in table): 4
MIC [7]: 64 µg/mL (≈ 214 µM)
MIC of antibiotic alone (K. pneumoniae K97/09 [8]): >256
MIC (K. pneumoniae K97/09 [9]; K97/09): > 256 mg/L
MIC (K. pneumoniae K97/09 [9]; K97/09, read-out: KPC MIC (mg/L)): > 256 mg/L
MIC [10]: 64 mg/L (≈ 214 µM)
